According to patent US11787825B2 (priority 2021, dated 2023):
Converted amounts (≈) assume the structure as drawn. Marks after values point to notes of the source that are not given here.

Key:
[1] = 1.0% DMSO, 24-hour incubation at ambient temperature, maximum theoretical compound concentration 100 μM; for pH 2 solubility: 0.1N HCL; for pH 7 solubility: 1×PBS buffer (pH 7.4)
[2] = Beagle, in vivo, po; for Dog F % (suspension): pH 2
physchem = details: 25 °C, thermodynamic from solid
[3] = fasted state simulated intestinal fluid (FaSSIF), fassif
[4] = fed state simulated intestinal fluid (FeSSIF), fessif

SMILES | pH 2 solubility [1] [μM] | pH 7 solubility [1] [μM] | Dog F % (solution) [2] | Dog F % (suspension) [2] [%] | solubility (physchem; [3]) [µg/mL] | solubility (physchem; [4]) [µg/mL]
CC(C)(C#Cc1ccc(-c2ccc(Cl)c3c(N(C(=O)CCCN(CC(=O)O)C(=O)OCOP(=O)(O)O)S(C)(=O)=O)nn(CC(F)(F)F)c23)c([C@H](Cc2cc(F)cc(F)c2)NC(=O)Cn2nc(C(F)(F)F)c3c2C(F)(F)[C@@H]2C[C@H]32)n1)S(C)(=O)=O [Compound 30, N-(4-(N-(4-chloro-7-(2-((S)-1-(2-((3bS,4aR)-5,5-difluoro-3-(trifluoromethyl)-3b,4,4a,5-tetrahydro-1H-cyclopropa[3,4]cyclopenta[1,2-c]pyrazol-1-yl)acetamido)-2-(3,5-difluorophenyl)ethyl)-6-(3-methyl-3-(methylsulfonyl)but-1-yn-1-yl)pyridin-3-yl)-1-(2,2,2-trifluoroethyl)-1H-indazol-3-yl)methylsulfonamido)-4-oxobutyl)-N-(((phosphonooxy)methoxy)carbonyl)glycine] | 1 | 100 | 18^c % | 18 | > 1100 | 5830 (≈ 4600 µM)
CC(C)(CNC(=O)OCOP(=O)(O)O)CC(=O)N(c1nn(CC(F)(F)F)c2c(-c3ccc(C#CC(C)(C)S(C)(=O)=O)nc3[C@H](Cc3cc(F)cc(F)c3)NC(=O)Cn3nc(C(F)(F)F)c4c3C(F)(F)[C@@H]3C[C@H]43)ccc(Cl)c12)S(C)(=O)=O [Compound 41, (phosphonooxy)methyl (4-(N-(4-chloro-7-(2-((S)-1-(2-((3bS,4aR)-5,5-difluoro-3-(trifluoromethyl)-3b,4,4a,5-tetrahydro-111-cyclopropa[3,4]cyclopenta[1,2-c]pyrazol-1-yl)acetamido)-2-(3,5-difluorophenyl)ethyl)-6-(3-methyl-3-(methylsulfonyl)but-1-yn-1-yl)pyridin-3-yl)-1-(2,2,2-trifluoroethyl)-1H-indazol-3-yl)methylsulfonamido)-2,2-dimethyl-4-oxobutyl)carbamate] | 1 | 100 |  | 4 | 1140 (≈ 927 µM) | 440 (≈ 356 µM)
CN(CCCC(=O)N(c1nn(CC(F)(F)F)c2c(-c3ccc(C#CC(C)(C)S(C)(=O)=O)nc3[C@H](Cc3cc(F)cc(F)c3)NC(=O)Cn3nc(C(F)(F)F)c4c3C(F)(F)[C@@H]3C[C@H]43)ccc(Cl)c12)S(C)(=O)=O)C(=O)OCOP(=O)(O)O [Compound 32, (phosphonooxy)methyl (4-(N-(4-chloro-7-(2-((S)-1-(2-((3bS,4aR)-5,5-difluoro-3-(trifluoromethyl)-3b,4,4a,5-tetrahydro-111-cyclopropa[3,4]cyclopenta [1,2-c]pyrazol-1-yl)acetamido)-2-(3,5-difluorophenyl)ethyl)-6-(3-methyl-3-(methylsulfonyl)but-1-yn-1-yl)pyridin-3-yl)-1-(2,2,2-trifluoroethyl)-1H-indazol-3-yl)methylsulfonamido)-4-oxobutyl)(methyl)carbamate] | 1 | 100 | 31^b % |  | 194 (≈ 159 µM) | 210 (≈ 172 µM)
CC(C)(CCN(CC(=O)O)C(=O)OCOP(=O)(O)O)C(=O)N(c1nn(CC(F)(F)F)c2c(-c3ccc(C#CC(C)(C)S(C)(=O)=O)nc3[C@H](Cc3cc(F)cc(F)c3)NC(=O)Cn3nc(C(F)(F)F)c4c3C(F)(F)[C@@H]3C[C@H]43)ccc(Cl)c12)S(C)(=O)=O [Compound 43, N-(4-(N-(4-chloro-7-(2-((S)-1-(2-((3bS,4aR)-5,5-difluoro-3-(trifluoromethyl)-3b,4,4a,5-tetrahydro-1H-cyclopropa[3,4]cyclopenta[1,2-c]pyrazol-1-yl)acetamido)-2-(3,5-difluorophenyl)ethyl)-6-(3-methyl-3-(methylsulfonyl)but-1-yn-1-yl)pyridin-3-yl)-1-(2,2,2-trifluoroethyl)-1H-indazol-3-yl)methylsulfonamido)-3,3-dimethyl-4-oxobutyl)-N-(((phosphonooxy)methoxy)carbonyl)glycine] | 2 | 100 |  | 23 | 2900 (≈ 2250 µM) | > 5770
